Laboratory results as given in publication PMC12325182, “Discovery of novel and potent celastrol derivatives as PRDX1 inhibitors for cancer therapy through structure-based virtual screening” (Frontiers in Pharmacology, 2025).

Assays:
Assay in all cases: Kinase selectivity assay
Type in all cases: biochemical
ERBB4 = ERBB4 (Homo sapiens, UniProt Q15303); settings: target ERBB4; read-out: CP1 IC50
Procedure: (§1) The selectivity of CP1 for PRDX1 was evaluated through kinase selectivity assays against other PRDX family members and a panel of kinases. The experiments were conducted by ICE Biosciences (Beijing, China).

FGFR4 = molecular target: T1, FGFR4 (Homo sapiens, UniProt P22455); settings: target FGFR4; read-out: CP1 IC50
T1 construct: assay run by ICE Biosciences (Beijing, China)
Procedure: as §1

ITK = ITK (Homo sapiens, UniProt Q08881); settings: target ITK; read-out: CP1 IC50
Procedure: as §1

JAK3 = JAK3 (Homo sapiens, UniProt P52333); settings: target JAK3; read-out: CP1 IC50
Procedure: as §1

RET = molecular target: T2, RET (Homo sapiens, UniProt P07949); settings: target RET; read-out: CP1 IC50
T2 construct: assay run by ICE Biosciences (Beijing, China)
Procedure: as §1

ALK = molecular target: T3, ALK (Homo sapiens, UniProt Q9UM73); settings: target ALK; read-out: CP1 IC50
T3 construct: ICE Biosciences (Beijing, China), ran the assays
Procedure: as §1

EGFR = molecular target: T4, EGFR (Homo sapiens, UniProt P00533); settings: target EGFR; read-out: CP1 IC50
T4 construct: ICE Biosciences (Beijing, China), ran the assays
Procedure: as §1

PRDX5 = molecular target: T5, PRDX5 (Homo sapiens, UniProt P30044); settings: target PRDX5; read-out: CP1 IC50
T5 construct: ICE Biosciences (Beijing, China), ran the assays
Procedure: as §1

CSF1R = molecular target: T6, CSF1R (Homo sapiens, UniProt P07333); settings: target CSF1R; read-out: CP1 IC50
T6 construct: ICE Biosciences (Beijing, China), ran the assays
Procedure: as §1

ROS1 = molecular target: T7, ROS1 (Homo sapiens, UniProt P08922); settings: target ROS1; read-out: CP1 IC50
T7 construct: assay run by ICE Biosciences (Beijing, China)
Procedure: as §1

IGF1R = molecular target: T8, IGF1R (Homo sapiens, UniProt P08069); settings: target IGF1R; read-out: CP1 IC50
T8 construct: ICE Biosciences (Beijing, China), ran the assays
Procedure: as §1

LCK = LCK (Homo sapiens, UniProt P06239); settings: target LCK; read-out: CP1 IC50
Procedure: as §1

FES = molecular target: T9, FES (Homo sapiens, UniProt P07332); settings: target FES; read-out: CP1 IC50
T9 construct: assay run by ICE Biosciences (Beijing, China)
Procedure: as §1

MET = MET (Homo sapiens, UniProt P08581); settings: target MET; read-out: CP1 IC50
Procedure: as §1

LTK = LTK (Homo sapiens, UniProt P29376); settings: target LTK; read-out: CP1 IC50
Procedure: as §1

PRDX4 = molecular target: T10, PRDX4 (Homo sapiens, UniProt Q13162); settings: target PRDX4; read-out: CP1 IC50
T10 construct: ICE Biosciences (Beijing, China), ran the assays
Procedure: as §1

ABL1 = molecular target: T11, ABL1 (Homo sapiens, UniProt P00519); settings: target ABL1; read-out: CP1 IC50
T11 construct: ICE Biosciences (Beijing, China), ran the assays
Procedure: as §1

JAK1 = JAK1 (Homo sapiens, UniProt P23458); settings: target JAK1; read-out: CP1 IC50
Procedure: as §1

MERTK = MERTK (Homo sapiens, UniProt Q12866); settings: target MERTK; read-out: CP1 IC50
Procedure: as §1

PRDX2 = molecular target: T12, PRDX2 (Homo sapiens, UniProt P32119); settings: target PRDX2; read-out: CP1 IC50
T12 construct: ICE Biosciences (Beijing, China), ran the assays
Procedure: as §1

AXL = molecular target: T13, AXL (Homo sapiens, UniProt P30530); settings: target AXL; read-out: CP1 IC50
T13 construct: ICE Biosciences (Beijing, China), ran the assays
Procedure: as §1

KDR = KDR (Homo sapiens, UniProt P35968); settings: target KDR; read-out: CP1 IC50
Procedure: as §1

TYRO3 = molecular target: T14, TYRO3 (Homo sapiens, UniProt Q06418); settings: target TYRO3; read-out: CP1 IC50
T14 construct: ICE Biosciences (Beijing, China), a contract laboratory that ran the assay
Procedure: as §1

BLK = molecular target: T15, BLK (Homo sapiens, UniProt P51451); settings: target BLK; read-out: CP1 IC50
T15 construct: ICE Biosciences (Beijing, China), ran the assays
Procedure: as §1

PTK2B = molecular target: T16, PTK2B (Homo sapiens, UniProt Q14289); settings: target PTK2B; read-out: CP1 IC50
T16 construct: assay run by ICE Biosciences (Beijing, China)
Procedure: as §1

YES1 = molecular target: T17, YES1 (Homo sapiens, UniProt P07947); settings: target YES1; read-out: CP1 IC50
T17 construct: ICE Biosciences (Beijing, China), a contract laboratory that ran the assay
Procedure: as §1

PTK2 = molecular target: T18, PTK2 (Homo sapiens, UniProt Q05397); settings: target PTK2; read-out: CP1 IC50
T18 construct: assay run by ICE Biosciences (Beijing, China)
Procedure: as §1

EPHB4 = EPHB4 (Homo sapiens, UniProt P54760); settings: target EPHB4; read-out: CP1 IC50
Procedure: as §1

ZAP70 = molecular target: T19, ZAP70 (Homo sapiens, UniProt P43403); settings: target ZAP70; read-out: CP1 IC50
T19 construct: ICE Biosciences (Beijing, China), a contract laboratory that ran the assay
Procedure: as §1

MUSK = MUSK (Homo sapiens, UniProt O15146); settings: target MUSK; read-out: CP1 IC50
Procedure: as §1

NTRK3 = molecular target: T20, NTRK3 (Homo sapiens, UniProt Q16288)
T20 construct: assay run by ICE Biosciences (Beijing, China)
Procedure: as §1

TYK2 = molecular target: T21, TYK2 (Homo sapiens, UniProt P29597); settings: target TYK2; read-out: CP1 IC50
T21 construct: ICE Biosciences (Beijing, China), a contract laboratory that ran the assay
Procedure: as §1

EPHA1 = molecular target: T22, EPHA1 (Homo sapiens, UniProt P21709); settings: target EPHA1; read-out: CP1 IC50
T22 construct: ICE Biosciences (Beijing, China), ran the assays
Procedure: as §1

PDGFRA = molecular target: T23, PDGFRA (Homo sapiens, UniProt P16234); settings: target PDGFRA; read-out: CP1 IC50
T23 construct: assay run by ICE Biosciences (Beijing, China)
Procedure: as §1

Measured: IC50

T15 sequence (P51451 whole entry): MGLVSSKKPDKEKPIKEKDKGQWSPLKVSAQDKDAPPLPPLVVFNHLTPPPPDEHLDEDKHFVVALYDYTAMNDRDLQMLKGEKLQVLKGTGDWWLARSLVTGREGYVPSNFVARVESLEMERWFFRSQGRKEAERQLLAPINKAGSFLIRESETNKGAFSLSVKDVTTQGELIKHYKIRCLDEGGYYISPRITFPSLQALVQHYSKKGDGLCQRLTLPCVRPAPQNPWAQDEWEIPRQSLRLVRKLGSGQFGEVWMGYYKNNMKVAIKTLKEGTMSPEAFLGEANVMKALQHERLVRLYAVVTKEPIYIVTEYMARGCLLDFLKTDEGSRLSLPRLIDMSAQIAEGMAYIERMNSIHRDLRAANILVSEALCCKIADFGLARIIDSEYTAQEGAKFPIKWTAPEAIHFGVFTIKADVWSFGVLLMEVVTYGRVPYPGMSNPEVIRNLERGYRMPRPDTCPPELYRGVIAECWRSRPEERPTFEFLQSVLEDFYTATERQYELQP
T8 sequence (P08069 31-1367): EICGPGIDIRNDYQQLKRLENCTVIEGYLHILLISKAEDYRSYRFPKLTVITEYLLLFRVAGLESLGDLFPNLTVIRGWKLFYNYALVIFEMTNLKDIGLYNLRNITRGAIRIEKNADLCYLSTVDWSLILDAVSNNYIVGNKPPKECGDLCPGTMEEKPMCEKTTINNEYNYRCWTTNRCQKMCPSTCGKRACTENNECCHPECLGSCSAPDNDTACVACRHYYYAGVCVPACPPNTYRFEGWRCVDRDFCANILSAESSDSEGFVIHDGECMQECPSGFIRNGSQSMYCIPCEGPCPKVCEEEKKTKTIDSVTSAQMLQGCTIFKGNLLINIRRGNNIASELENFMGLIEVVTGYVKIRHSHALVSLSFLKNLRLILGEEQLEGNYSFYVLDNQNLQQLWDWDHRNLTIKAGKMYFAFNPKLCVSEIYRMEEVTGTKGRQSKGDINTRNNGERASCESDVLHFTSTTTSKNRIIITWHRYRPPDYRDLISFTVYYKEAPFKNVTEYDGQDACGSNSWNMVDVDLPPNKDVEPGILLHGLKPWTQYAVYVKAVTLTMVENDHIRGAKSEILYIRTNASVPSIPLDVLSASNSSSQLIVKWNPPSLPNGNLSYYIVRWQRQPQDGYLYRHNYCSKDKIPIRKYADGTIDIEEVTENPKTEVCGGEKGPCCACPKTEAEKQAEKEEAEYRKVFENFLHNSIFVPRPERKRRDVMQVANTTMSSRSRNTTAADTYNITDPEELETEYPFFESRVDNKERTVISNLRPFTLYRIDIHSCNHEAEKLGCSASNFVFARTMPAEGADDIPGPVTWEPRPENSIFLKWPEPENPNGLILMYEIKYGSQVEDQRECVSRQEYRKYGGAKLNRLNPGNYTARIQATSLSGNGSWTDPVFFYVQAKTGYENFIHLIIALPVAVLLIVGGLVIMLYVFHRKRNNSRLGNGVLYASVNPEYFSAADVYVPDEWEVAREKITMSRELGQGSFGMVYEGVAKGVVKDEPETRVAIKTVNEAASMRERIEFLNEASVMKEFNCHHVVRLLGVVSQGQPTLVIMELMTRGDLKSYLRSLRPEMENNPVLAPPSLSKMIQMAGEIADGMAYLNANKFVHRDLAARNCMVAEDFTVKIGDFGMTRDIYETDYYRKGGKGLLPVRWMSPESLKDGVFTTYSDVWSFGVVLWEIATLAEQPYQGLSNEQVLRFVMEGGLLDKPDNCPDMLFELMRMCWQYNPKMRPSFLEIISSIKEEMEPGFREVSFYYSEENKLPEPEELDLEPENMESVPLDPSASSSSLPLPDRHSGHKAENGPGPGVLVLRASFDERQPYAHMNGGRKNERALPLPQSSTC
T4 sequence (P00533 25-1210): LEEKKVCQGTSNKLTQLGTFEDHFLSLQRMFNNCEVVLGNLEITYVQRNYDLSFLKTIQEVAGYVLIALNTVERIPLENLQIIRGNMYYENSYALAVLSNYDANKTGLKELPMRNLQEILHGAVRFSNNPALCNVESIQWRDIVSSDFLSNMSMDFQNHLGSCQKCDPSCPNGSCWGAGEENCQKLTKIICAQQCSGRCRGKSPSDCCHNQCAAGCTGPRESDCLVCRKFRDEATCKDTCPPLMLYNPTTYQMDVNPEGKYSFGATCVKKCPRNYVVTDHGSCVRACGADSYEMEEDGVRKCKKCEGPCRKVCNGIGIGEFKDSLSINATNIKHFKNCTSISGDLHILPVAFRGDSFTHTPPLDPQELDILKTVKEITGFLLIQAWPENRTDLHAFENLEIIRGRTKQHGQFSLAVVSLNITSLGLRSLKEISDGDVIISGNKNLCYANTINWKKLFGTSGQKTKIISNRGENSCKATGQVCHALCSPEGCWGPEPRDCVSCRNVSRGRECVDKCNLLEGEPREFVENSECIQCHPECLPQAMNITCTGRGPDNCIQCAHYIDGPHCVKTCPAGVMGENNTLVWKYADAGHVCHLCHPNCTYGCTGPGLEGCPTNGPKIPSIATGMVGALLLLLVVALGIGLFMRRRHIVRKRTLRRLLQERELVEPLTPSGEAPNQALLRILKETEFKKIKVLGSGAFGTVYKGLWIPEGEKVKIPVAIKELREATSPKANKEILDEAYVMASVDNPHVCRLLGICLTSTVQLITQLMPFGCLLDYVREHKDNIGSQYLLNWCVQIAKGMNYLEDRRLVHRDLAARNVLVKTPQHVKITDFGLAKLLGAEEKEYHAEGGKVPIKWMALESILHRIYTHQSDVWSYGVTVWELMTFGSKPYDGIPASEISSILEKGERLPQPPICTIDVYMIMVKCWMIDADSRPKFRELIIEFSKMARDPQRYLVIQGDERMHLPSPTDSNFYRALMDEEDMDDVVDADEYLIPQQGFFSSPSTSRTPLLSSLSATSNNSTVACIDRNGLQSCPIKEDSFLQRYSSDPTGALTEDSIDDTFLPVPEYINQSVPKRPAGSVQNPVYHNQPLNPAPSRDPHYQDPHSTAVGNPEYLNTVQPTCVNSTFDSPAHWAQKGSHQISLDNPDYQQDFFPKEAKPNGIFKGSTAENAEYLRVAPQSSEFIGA
Sequence of JAK1 (P23458 whole entry): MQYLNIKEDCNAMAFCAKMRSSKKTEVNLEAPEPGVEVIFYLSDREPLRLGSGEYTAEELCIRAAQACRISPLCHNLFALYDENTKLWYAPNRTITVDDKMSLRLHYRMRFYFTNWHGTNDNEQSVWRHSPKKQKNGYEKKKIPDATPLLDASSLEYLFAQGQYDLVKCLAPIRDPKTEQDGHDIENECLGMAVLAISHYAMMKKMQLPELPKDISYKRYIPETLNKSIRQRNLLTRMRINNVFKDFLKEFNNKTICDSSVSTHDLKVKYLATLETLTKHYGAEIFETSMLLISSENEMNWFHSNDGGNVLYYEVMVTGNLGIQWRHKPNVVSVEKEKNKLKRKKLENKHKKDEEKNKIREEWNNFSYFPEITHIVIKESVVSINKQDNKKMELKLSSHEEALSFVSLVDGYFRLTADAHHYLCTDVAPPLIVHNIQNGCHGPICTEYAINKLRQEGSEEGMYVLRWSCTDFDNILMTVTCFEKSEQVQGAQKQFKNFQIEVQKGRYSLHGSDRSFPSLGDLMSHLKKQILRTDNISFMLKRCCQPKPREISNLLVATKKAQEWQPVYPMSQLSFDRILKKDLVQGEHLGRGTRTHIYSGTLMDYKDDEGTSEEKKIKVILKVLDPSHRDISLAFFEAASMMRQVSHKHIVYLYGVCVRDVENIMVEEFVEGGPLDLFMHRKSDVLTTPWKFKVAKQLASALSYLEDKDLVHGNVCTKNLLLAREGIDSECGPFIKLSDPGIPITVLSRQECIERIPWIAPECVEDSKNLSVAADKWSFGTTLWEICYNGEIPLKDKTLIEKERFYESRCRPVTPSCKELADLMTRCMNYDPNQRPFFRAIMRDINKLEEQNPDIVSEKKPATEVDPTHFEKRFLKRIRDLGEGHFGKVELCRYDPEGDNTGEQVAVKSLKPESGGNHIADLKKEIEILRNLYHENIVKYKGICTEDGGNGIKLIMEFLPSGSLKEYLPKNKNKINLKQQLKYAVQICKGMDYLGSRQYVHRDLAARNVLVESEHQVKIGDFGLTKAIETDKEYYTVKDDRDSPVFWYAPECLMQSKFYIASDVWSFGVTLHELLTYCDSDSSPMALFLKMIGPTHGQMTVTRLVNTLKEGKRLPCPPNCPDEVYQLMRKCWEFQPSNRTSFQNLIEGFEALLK
T1 sequence (P22455 22-802): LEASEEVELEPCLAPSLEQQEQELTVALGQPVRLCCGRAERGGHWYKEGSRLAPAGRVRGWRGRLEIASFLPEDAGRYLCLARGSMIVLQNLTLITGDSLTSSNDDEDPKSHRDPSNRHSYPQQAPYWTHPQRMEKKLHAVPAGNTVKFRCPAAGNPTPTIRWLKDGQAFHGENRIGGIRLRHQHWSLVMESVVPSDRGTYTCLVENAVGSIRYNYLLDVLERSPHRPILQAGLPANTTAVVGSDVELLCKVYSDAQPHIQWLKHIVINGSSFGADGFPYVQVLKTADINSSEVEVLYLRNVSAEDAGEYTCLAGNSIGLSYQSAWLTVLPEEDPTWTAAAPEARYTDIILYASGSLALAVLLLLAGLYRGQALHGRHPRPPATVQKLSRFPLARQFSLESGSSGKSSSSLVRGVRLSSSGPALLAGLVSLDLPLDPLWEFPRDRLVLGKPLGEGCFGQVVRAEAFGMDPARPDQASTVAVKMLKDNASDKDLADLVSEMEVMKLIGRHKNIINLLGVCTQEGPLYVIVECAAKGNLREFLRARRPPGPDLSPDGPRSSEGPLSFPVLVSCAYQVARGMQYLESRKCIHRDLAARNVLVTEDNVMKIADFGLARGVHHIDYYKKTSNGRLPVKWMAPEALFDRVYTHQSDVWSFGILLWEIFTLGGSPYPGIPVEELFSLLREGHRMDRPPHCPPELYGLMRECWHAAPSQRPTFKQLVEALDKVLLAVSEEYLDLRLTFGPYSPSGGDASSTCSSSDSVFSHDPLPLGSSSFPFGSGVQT

CC1=C(CC(=O)/C=C/c2cccc(CO)c2)C(=O)C=C2C1=CC=C1[C@@]2(C)CC[C@@]2(C)C3C[C@](C)(C(=O)CCc4nc(C(O)C(O)O)c(C)nc4C)CC[C@]3(C)CC[C@]12C (stereo partly shown) [CP1]
> 30 µM: all assays above
